Source: patent publication US11690379B2, “Aqueous insecticidal composition and methods of use thereof” (priority 2020, dated 2023)

What was measured:
Type in all cases: in vivo
[1] = system: silverleaf whitefly (Bemisia tabaci); assay: Foliar spray bioefficacy, first assay (3 applications); conditions: for # of Individuals per Leaf: Adults, 1st Appl. / # of Individuals per Leaf: Eggs, 1st Appl. / # of Individuals per Leaf: Nymphs, 1st Appl.: 7 days after first application; for # of Individuals per Leaf: Adults, 2nd Appl. / # of Individuals per Leaf: Eggs, 2nd Appl. / # of Individuals per Leaf: Nymphs, 2nd Appl.: 7 days after second application; for # of Individuals per Leaf: Adults, 3rd Appl. / # of Individuals per Leaf: Eggs, 3rd Appl. / # of Individuals per Leaf: Nymphs, 3rd Appl.: 8 days after third application
Description: (§1) A bioefficacy assay utilizing a foliar spray containing Spirotetramat and pyriproxyfen was conducted on the silverleaf whitefly (Bemisia tabaci) on tomatoes and bell peppers. […] Control was recorded 7 days after first application, 7 days after second application and 8 days after third application. Application rates and results of this assay can be found in Table 8, below.

[2] = system: silverleaf whitefly (Bemisia tabaci); assay: Foliar spray bioefficacy, second assay (2 applications); conditions: recorded 8 days after second application
Description: as §1, with “below. […] Control was recorded 8 days after second application. Application rates and results of this assay can be found in Table 9, below.” for “below.”

[3] = system: Asian citrus psyllid (Diaphorina citri); assay: Foliar spray bioefficacy on Valencia oranges
Description: A bioefficacy assay utilizing a foliar spray containing Spirotetramat and pyriproxyfen was conducted on the Asian citrus psyllid (Diaphorina citri) on Valencia oranges. Spirotetramat and pyriproxyfen were applied concurrently and separately as a foliar spray. Application rates and results of this assay can be found in Table 12, below.

[4] = system: silverleaf whitefly (Bemisia tabaci); assay: Foliar spray bioefficacy, third assay (3 applications); conditions: for # of Individuals per Leaf: Adults, 1st Appl. / # of Individuals per Leaf: Eggs, 1st Appl. / # of Individuals per Leaf: Nymphs, 1st Appl.: 7 days after first application; for # of Individuals per Leaf: Adults, 2nd Appl. / # of Individuals per Leaf: Eggs, 2nd Appl. / # of Individuals per Leaf: Nymphs, 2nd Appl.: 7 days after second application; for # of Individuals per Leaf: Adults, 3rd Appl. / # of Individuals per Leaf: Eggs, 3rd Appl. / # of Individuals per Leaf: Nymphs, 3rd Appl.: 8 days after third application
Description: as §1, with “below. […] Control was recorded 7 days after first application, 7 days after second application and 8 days after third application. Application rates and results of this assay can be found in Table 10, below.” for “below.”

[5] = system: vine mealybug (Pseudococcus maritimus); assay: Foliar spray bioefficacy on table grapes; conditions: Spirotetramat 131 g/HA
Description: A bioefficacy assay utilizing a foliar spray containing Spirotetramat and pyriproxyfen was conducted on the vine mealybug (Pseudococcus maritimus) on table grapes. Spirotetramat and pyriproxyfen were applied concurrently as a foliar spray and spirotetramat was also applied individually. Application rates and results of this assay can be found in Table 11, below.

Question: Which “# of Individuals per Leaf: Adults, 1st Appl.” value ([1]; Pyriproxyfen 75.3 g/HA) does the source give for CC(COc1ccc(Oc2ccccc2)cc1)Oc1ccccn1 (racemic) [Pyriproxyfen, 4-Phenoxyphenyl (R/S)-2-(2-pyridyloxy)propyl ether] here?
Answer: 0.5 per Leaf

Question: And the “# of Individuals per Leaf: Eggs, 1st Appl.” value ([1]; Pyriproxyfen 75.3 g/HA)?
Answer: 0.5 per Leaf

Question: What about the “# of Individuals per Leaf: Nymphs, 1st Appl.” value ([1]; Pyriproxyfen 75.3 g/HA) of the same compound?
Answer: 0.5 per Leaf

Question: And the “# of Individuals per Leaf: Adults, 2nd Appl.” value ([1]; Pyriproxyfen 75.3 g/HA)?
Answer: 1.5 per Leaf

Question: What about the “# of Individuals per Leaf: Eggs, 2nd Appl.” value ([1]; Pyriproxyfen 75.3 g/HA) of the same compound?
Answer: 2.3 per Leaf

Question: And the “# of Individuals per Leaf: Nymphs, 2nd Appl.” value ([1]; Pyriproxyfen 75.3 g/HA)?
Answer: 0.8 per Leaf

Question: And the “# of Individuals per Leaf: Adults, 3rd Appl.” value ([1]; Pyriproxyfen 75.3 g/HA)?
Answer: 1.0 per Leaf

Question: What about the “# of Individuals per Leaf: Eggs, 3rd Appl.” value ([1]; Pyriproxyfen 75.3 g/HA) of the same compound?
Answer: 2.0 per Leaf

Question: And the “# of Individuals per Leaf: Nymphs, 3rd Appl.” value ([1]; Pyriproxyfen 75.3 g/HA)?
Answer: 0.8 per Leaf

Question: And the “# of Individuals per Leaf: Adults, 1st Appl.” value ([2]; Pyriproxyfen 75.3 g/HA)?
Answer: 1.6 per Leaf

Question: And the “# of Individuals per Leaf: Eggs, 1st Appl.” value ([2]; Pyriproxyfen 75.3 g/HA)?
Answer: 27.4 per Leaf

Question: What about the “# of Individuals per Leaf: Nymphs, 1st Appl.” value ([2]; Pyriproxyfen 75.3 g/HA) of the same compound?
Answer: 65.9 per Leaf

Question: And the “# of Nymphs” value ([3]; Pyriproxyfen 127.9 g/HA)?
Answer: 14.1

Question: What about the “# of Individuals per Leaf: Adults, 1st Appl.” value ([4]; Pyriproxyfen 75.3 g/HA) of the same compound?
Answer: 0.5 per Leaf

Question: What about the “# of Individuals per Leaf: Eggs, 1st Appl.” value ([4]; Pyriproxyfen 75.3 g/HA) of the same compound?
Answer: 0.5 per Leaf

Question: What about the “# of Individuals per Leaf: Nymphs, 1st Appl.” value ([4]; Pyriproxyfen 75.3 g/HA) of the same compound?
Answer: 0.5 per Leaf

Question: What about the “# of Individuals per Leaf: Adults, 2nd Appl.” value ([4]; Pyriproxyfen 75.3 g/HA) of the same compound?
Answer: 1.5 per Leaf

Question: And the “# of Individuals per Leaf: Eggs, 2nd Appl.” value ([4]; Pyriproxyfen 75.3 g/HA)?
Answer: 2.3 per Leaf

Question: What about the “# of Individuals per Leaf: Nymphs, 2nd Appl.” value ([4]; Pyriproxyfen 75.3 g/HA) of the same compound?
Answer: 0.8 per Leaf

Question: And the “# of Individuals per Leaf: Adults, 3rd Appl.” value ([4]; Pyriproxyfen 75.3 g/HA)?
Answer: 1.0 per Leaf

Question: What about the “# of Individuals per Leaf: Eggs, 3rd Appl.” value ([4]; Pyriproxyfen 75.3 g/HA) of the same compound?
Answer: 2.0 per Leaf

Question: And the “# of Individuals per Leaf: Nymphs, 3rd Appl.” value ([4]; Pyriproxyfen 75.3 g/HA)?
Answer: 0.8 per Leaf

Question: With CCOC(=O)OC1=C(c2cc(C)ccc2C)C(=O)N[C@]12CC[C@@H](OC)CC2 [Spirotetramat, cis-3-(2,5-dimethylphenyl)-8-methoxy-2-oxo-1-azaspiro[4.5]dec-3-en-4-ylethyl carbonate] as the compound, how does the “# of Individuals per Leaf: Adults, 1st Appl.” value ([1]; Spirotetramat 87.6 g/HA) read?
Answer: 3.3 per Leaf

Question: And the “# of Individuals per Leaf: Eggs, 1st Appl.” value ([1]; Spirotetramat 87.6 g/HA)?
Answer: 6.5 per Leaf

Question: And the “# of Individuals per Leaf: Nymphs, 1st Appl.” value ([1]; Spirotetramat 87.6 g/HA)?
Answer: 17.8 per Leaf

Question: What about the “# of Individuals per Leaf: Adults, 2nd Appl.” value ([1]; Spirotetramat 87.6 g/HA) of the same compound?
Answer: 2.0 per Leaf

Question: And the “# of Individuals per Leaf: Eggs, 2nd Appl.” value ([1]; Spirotetramat 87.6 g/HA)?
Answer: 13.8 per Leaf

Question: What about the “# of Individuals per Leaf: Nymphs, 2nd Appl.” value ([1]; Spirotetramat 87.6 g/HA) of the same compound?
Answer: 30.5 per Leaf

Question: What about the “# of Individuals per Leaf: Adults, 3rd Appl.” value ([1]; Spirotetramat 87.6 g/HA) of the same compound?
Answer: 2.0 per Leaf

Question: And the “# of Individuals per Leaf: Eggs, 3rd Appl.” value ([1]; Spirotetramat 87.6 g/HA)?
Answer: 11.0 per Leaf

Question: And the “# of Individuals per Leaf: Nymphs, 3rd Appl.” value ([1]; Spirotetramat 87.6 g/HA)?
Answer: 16.8 per Leaf

Question: What about the “# of Individuals per Leaf: Adults, 1st Appl.” value ([2]; Spirotetramat 87.6 g/HA) of the same compound?
Answer: 2.6 per Leaf

Question: And the “# of Individuals per Leaf: Eggs, 1st Appl.” value ([2]; Spirotetramat 87.6 g/HA)?
Answer: 12.7 per Leaf

Question: And the “# of Individuals per Leaf: Nymphs, 1st Appl.” value ([2]; Spirotetramat 87.6 g/HA)?
Answer: 33.2 per Leaf

Question: And the “# of Nymphs” value ([3]; Spirotetramat 163.7 g/HA)?
Answer: 8.6

Question: And the “% bunches infested” value [5]?
Answer: 6.8%

Question: What about the “# of Individuals per Leaf: Adults, 1st Appl.” value ([4]; Spirotetramat 87.6 g/HA) of the same compound?
Answer: 3.3 per Leaf

Question: What about the “# of Individuals per Leaf: Eggs, 1st Appl.” value ([4]; Spirotetramat 87.6 g/HA) of the same compound?
Answer: 6.5 per Leaf

Question: And the “# of Individuals per Leaf: Nymphs, 1st Appl.” value ([4]; Spirotetramat 87.6 g/HA)?
Answer: 17.8 per Leaf

Question: What about the “# of Individuals per Leaf: Adults, 2nd Appl.” value ([4]; Spirotetramat 87.6 g/HA) of the same compound?
Answer: 2.0 per Leaf

Question: And the “# of Individuals per Leaf: Eggs, 2nd Appl.” value ([4]; Spirotetramat 87.6 g/HA)?
Answer: 13.8 per Leaf

Question: What about the “# of Individuals per Leaf: Nymphs, 2nd Appl.” value ([4]; Spirotetramat 87.6 g/HA) of the same compound?
Answer: 30.5 per Leaf

Question: What about the “# of Individuals per Leaf: Adults, 3rd Appl.” value ([4]; Spirotetramat 87.6 g/HA) of the same compound?
Answer: 2.0 per Leaf

Question: And the “# of Individuals per Leaf: Eggs, 3rd Appl.” value ([4]; Spirotetramat 87.6 g/HA)?
Answer: 11.0 per Leaf

Question: What about the “# of Individuals per Leaf: Nymphs, 3rd Appl.” value ([4]; Spirotetramat 87.6 g/HA) of the same compound?
Answer: 16.8 per Leaf
